Numbering of substitutions follows the chain as printed. Several values for one entry are separate records, joined by “and”; a condition that tells them apart may be missing. Equal entries are not always repeated.
Key:
COX2 T564A = target: T1, COX2 T564A (Homo sapiens, UniProt P35354, T564A); test: filter binding assay of [14C] N-AS to COX2; details: replicates
T1 construct: His (N); made in house
T1 sequence (P35354 18-604 T564A): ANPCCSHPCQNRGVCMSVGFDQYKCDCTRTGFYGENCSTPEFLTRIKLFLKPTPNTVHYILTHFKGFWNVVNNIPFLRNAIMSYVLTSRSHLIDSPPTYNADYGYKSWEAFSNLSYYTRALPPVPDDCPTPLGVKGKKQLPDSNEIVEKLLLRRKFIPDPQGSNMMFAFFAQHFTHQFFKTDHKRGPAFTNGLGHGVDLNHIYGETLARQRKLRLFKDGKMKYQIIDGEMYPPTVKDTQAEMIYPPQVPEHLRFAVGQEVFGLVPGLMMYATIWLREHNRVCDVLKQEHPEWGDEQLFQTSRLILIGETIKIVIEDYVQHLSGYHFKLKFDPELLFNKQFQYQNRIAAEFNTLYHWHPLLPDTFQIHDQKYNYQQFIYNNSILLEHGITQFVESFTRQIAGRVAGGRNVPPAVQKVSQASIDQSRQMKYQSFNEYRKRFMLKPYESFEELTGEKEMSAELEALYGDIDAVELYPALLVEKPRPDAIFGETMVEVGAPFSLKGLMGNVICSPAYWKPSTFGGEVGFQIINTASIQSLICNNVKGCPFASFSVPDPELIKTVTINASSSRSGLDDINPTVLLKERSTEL
Text: (§1) Single point mutations in SphK1 (R56A, R57A, R24A, R185A, D178A, and F192A) and COX2 (S565A, N181A, T564A, and S567A) were generated using the In-Fusion Cloning Kits (Clontech) and ORF cDNA expression plasmids of human SphK1 and COX2 gene (Sino Biological Inc, HG15679-NH and HG12036-NH), according to the manufacturer’s instructions. The forward and reverse primers described in Supplementary Table 4. The SphK1 WT, SphK1 mutants, COX2 WT, and COX2 mutant plasmids were transformed in the One shot TOP 10 competent cell (Invitrogen). The bacteria were grown in Luria-Bertani (LB, Invitrogen) plates supplemented with 50 μg ml^−1 kanamycin (Sigma-Aldrich) at 37 °C. The bacterial cell pellets were resuspended in lysis buffer containing 20 mM sodium phosphate (GE Healthcare), 500 mM NaCl (GE Healthcare), 20 mM imidazole (pH 7.4) (GE Healthcare), 0.2 mg ml^−1 lysozyme (Sigma-Aldrich), 20 μg ml^−1 DNase I (Roche), 1 mM MgCl2 (Sigma-Aldrich), and 1 mM PMSF (Sigma-Aldrich) before being lysed by sonication and clarified by centrifugation at 15,493×g for 10 min. Proteins were purified from the soluble fraction using His-Spin Trap columns (GE Healthcare) and the binding and acetylation assays were performed.
(§2) Briefly, SphK1 WT and mutant enzymes (1 mU) were resuspended in 100 μl reaction buffer (20 mM HEPES; pH 7.4, 50 mM NaCl, 10 mM MgCl2, 1 mM EGTA, 0.02% Triton-X100, and 100 μM sphingosine, all from Sigma-Aldrich). […] Briefly, COX2 WT and mutant enzymes (1 mU) were resuspended in 100 μl reaction buffer (20 mM HEPES; pH 7.4, 50 mM NaCl, 10 mM MgCl2, 1 mM EGTA, and 0.02% Triton-X100, all from Sigma-Aldrich). Reactions were initiated by adding [^14C] N-AS (1–200 μM (0.1–20 μCi), ARC UK Ltd, ARC-1024) and incubated at 37 °C for 1 h. The reactions were terminated by adding 100 μl of ice-cold reaction buffer containing 5 mM cold N-AS and immediately filtered through P30 filtermat (Perkin-Elmer), followed by five washes.
(§3) The binding velocity was plotted and the Kcat and KM values were calculated from the Michaelis-Menten analysis using the Sigma-plot program (ver 10.0, Systat software Inc.).

COX2 WT = target: T2, COX2 WT (Homo sapiens, UniProt P35354); test: filter binding assay of [14C] N-AS to COX2; details: COX2 Control, replicates
T2 construct: His (N); made in house
T2 sequence (P35354 18-604): T1 sequence (P35354 18-604 T564A) with A547T
Text: as §1, §2, §3

SMILES: CCCCCCCCCCCCC/C=C/[C@@H](O)[C@H](CO)NC(C)=O [N-AS, N-((2S,3R,E)-1,3-Dihydroxyoctadec-4-en-2-yl)acetamide]
- binding velocity (Vbinding) (COX2 T564A; 1 uM): 0.251 nM/min and 0.379 nM/min and 0.622 nM/min
- binding velocity (Vbinding) (COX2 T564A; 5 uM): 7.230 nM/min and 6.808 nM/min and 11.168 nM/min
- binding velocity (Vbinding) (COX2 T564A; 10 uM): 7.378 nM/min and 8.069 nM/min and 9.338 nM/min
- binding velocity (Vbinding) (COX2 T564A; 20 uM): 12.382 nM/min and 16.697 nM/min and 16.993 nM/min
- binding velocity (Vbinding) (COX2 T564A; 100 uM): 28.376 nM/min and 29.582 nM/min and 24.951 nM/min
- binding velocity (Vbinding) (COX2 T564A; 200 uM): 37.587 nM/min and 41.759 nM/min and 47.017 nM/min
- binding velocity (Vbinding) (COX2 WT; 1 uM (100 pmol)): 0.888 nM/min and 1.293 nM/min and 0.920 nM/min
- binding velocity (Vbinding) (COX2 WT; 5 uM (500 pmol)): 5.664 nM/min and 7.362 nM/min and 11.711 nM/min
- binding velocity (Vbinding) (COX2 WT; 10 uM (1000 pmol)): 14.955 nM/min and 10.446 nM/min and 14.278 nM/min
- binding velocity (Vbinding) (COX2 WT; 20 uM (2000 pmol)): 30.848 nM/min and 29.462 nM/min and 25.197 nM/min
- binding velocity (Vbinding) (COX2 WT; 100 uM (10000 pmol)): 52.281 nM/min and 47.667 nM/min and 52.002 nM/min
- binding velocity (Vbinding) (COX2 WT; 200 uM (20000 pmol)): 58.338 nM/min and 57.809 nM/min and 65.044 nM/min

Source: article PMC7217877, “N-AS-triggered SPMs are direct regulators of microglia in a model of Alzheimer’s disease” (Nature Communications, 2020)
